Laboratory results from patent US9828413B2, “Vancomycin derivative, and preparation method and application thereof” (ACESYS PHARMA INC., priority 2013, dated 2017).
In brackets after ≈: the same amount, converted by molar mass. Read-outs that look alike come from different tables or passages of the source.

Columns and labels:
[1] = system: Staphylococcus aureus Mu50; assay: In vitro activity assay, minimum inhibitory concentration (MIC), cup-plate method; assay type: cell-based
Experimental: (§1) In vitro activity assay was performed according to Microbiological Identification of Antibiotics, Appendix XIA, Volume II, Chinese Pharmacopoeia 2010. Vancomycin-sensitive Staphylococcus aureus strains (Newman and Mu 50) were selected as the test strains, and trypticase soy broth was selected as the culture medium.

[2] = system: Staphylococcus aureus Newman; assay: as above; assay type: cell-based; settings: read-out: MIC values, Staphylococcus aureus Newman
Experimental: as §1

physchem = settings: 25 °C, water, thermodynamic from solid
[3] = Solubility test of compounds in water; settings: 25 °C, thermodynamic from solid
[4] = data from US2010/045201; cited from earlier work
[5] = strain Mu50, trypticase soy broth, read-out: MIC values, Staphylococcus aureus Mu50
[6] = strain Newman, trypticase soy broth

Row | Compound | MIC [1, 5] [µg/mL] | MIC [2, 6] [µg/mL] | solubility at 30 min (physchem) [mg/mL] | MIC ([1]; MU50, read-out: MIC values, Staphylococcus aureus Mu50) [µg/mL] | MIC ([2]; NEWMAN) [µg/mL] | solubility at 30 min [3] [mg/mL] | Solubility in water [4] [mg/mL]
1 | CN[C@H](CC(C)C)C(=O)N[C@@H]1C(=O)NC(CC(N)=O)C(=O)NC2C(=O)NC3C(=O)N[C@H](C(=O)NC(C(=O)O)c4cc(O)cc(O)c4-c4cc3ccc4O)[C@H](O)c3ccc(c(Cl)c3)Oc3cc2cc(c3OC2OC(CO)C(O)C(O)C2OC2CC(C)(NCC(OCc3ccc(C)cc3)C(=O)OC)C(O)C(C)O2)Oc2ccc(cc2Cl)C1O (stereo partly shown) [Compound V22] | 8 (≈ 4.83 µM) | 2 (≈ 1.21 µM) | < 5 | – | – | – | –
2 | CCCCOC(CNC1(C)CC(OC2C(Oc3c4cc5cc3Oc3ccc(cc3Cl)[C@@H](O)[C@@H]3NC(=O)C(NC(=O)C5NC(=O)C(CC(N)=O)NC(=O)[C@@H](NC(=O)[C@H](N)CC(C)C)C(O)c5ccc(c(Cl)c5)O4)c4ccc(O)c(c4)-c4c(O)cc(O)cc4C(C(=O)O)NC3=O)OC(CO)C(O)C2O)OC(C)C1O)C(=O)O (stereo partly shown) [Compound V58] | > 128 | 64 (≈ 40.5 µM) | 50 to 60 (≈ 31700 to 38000 µM) | – | – | – | –
3 | CCCOC(CNC1(C)CC(OC2C(Oc3c4cc5cc3Oc3ccc(cc3Cl)[C@@H](O)[C@@H]3NC(=O)C(NC(=O)[C@@H]5NC(=O)[C@H](CC(N)=O)NC(=O)C(NC(=O)[C@@H](CC(C)C)NC)[C@H](O)c5ccc(c(Cl)c5)O4)c4ccc(O)c(c4)-c4c(O)cc(O)cc4[C@H](C(=O)O)NC3=O)OC(CO)C(O)C2O)OC(C)C1O)C(=O)O (stereo partly shown) [Compound V30] | 16 (≈ 10.1 µM) | 4 (≈ 2.53 µM) | 4 (≈ 2530 µM) | – | – | – | –
4 | CN[C@H](CC(C)C)C(=O)N[C@@H]1C(=O)NC(CC(N)=O)C(=O)NC2C(=O)NC3C(=O)N[C@H](C(=O)NC(C(=O)O)c4cc(O)cc(O)c4-c4cc3ccc4O)[C@H](O)c3ccc(c(Cl)c3)Oc3cc2cc(c3OC2OC(CO)C(O)C(O)C2OC2CC(C)(NCC(OCc3ccc(-c4ccc(Cl)cc4)cc3)C(=O)OC)C(O)C(C)O2)Oc2ccc(cc2Cl)C1O (stereo partly shown) [Compound V13] | 2 (≈ 1.14 µM) | < 0.125 | 50 to 60 (≈ 28500 to 34200 µM) | – | – | – | –
5 | COC(=O)C(CNC1(C)CC(OC2C(Oc3c4cc5cc3Oc3ccc(cc3Cl)[C@@H](O)[C@@H]3NC(=O)C(NC(=O)[C@@H]5NC(=O)[C@H](CC(N)=O)NC(=O)C(NC(=O)[C@H](N)CC(C)C)[C@H](O)c5ccc(c(Cl)c5)O4)c4ccc(O)c(c4)-c4c(O)cc(O)cc4[C@H](C(=O)O)NC3=O)OC(CO)C(O)C2O)OC(C)C1O)OCc1ccc(-c2ccc(Cl)cc2)cc1 (stereo partly shown) [Compound V55] | 2 (≈ 1.15 µM) | < 0.125 | 3 (≈ 1730 µM) | – | – | – | –
6 | CCCCCCOC(CNC1(C)CC(OC2C(Oc3c4cc5cc3Oc3ccc(cc3Cl)[C@@H](O)[C@@H]3NC(=O)C(NC(=O)[C@@H]5NC(=O)[C@H](CC(N)=O)NC(=O)C(NC(=O)[C@H](N)CC(C)C)[C@H](O)c5ccc(c(Cl)c5)O4)c4ccc(O)c(c4)-c4c(O)cc(O)cc4[C@H](C(=O)O)NC3=O)OC(CO)C(O)C2O)OC(C)C1O)C(=O)O (stereo partly shown) [Compound V60] | 8 (≈ 4.98 µM) | 2 (≈ 1.24 µM) | > 20 | – | – | – | –
7 | CN[C@H](CC(C)C)C(=O)NC1C(=O)N[C@@H](CC(N)=O)C(=O)N[C@H]2C(=O)NC3C(=O)N[C@H](C(=O)N[C@@H](C(=O)O)c4cc(O)cc(O)c4-c4cc3ccc4O)[C@H](OC3CC(C)(N)C(O)C(C)O3)c3ccc(c(Cl)c3)Oc3cc2cc(c3OC2OC(CO)C(O)C(O)C2OC2CC(C)(NCC(OCc3cccc(-c4ccc(Cl)cc4)c3)C(=O)O)C(O)C(C)O2)Oc2ccc(cc2Cl)[C@H]1O (stereo partly shown) [Compound V65] | 2 (≈ 1.06 µM) | < 0.125 | 5 to 20 (≈ 2660 to 10600 µM) | – | – | – | –
8 | COC(=O)C(CNC1(C)CC(OC2C(Oc3c4cc5cc3Oc3ccc(cc3Cl)[C@@H](O)[C@@H]3NC(=O)C(NC(=O)C5NC(=O)C(CC(N)=O)NC(=O)[C@@H](NC(=O)[C@H](N)CC(C)C)C(O)c5ccc(c(Cl)c5)O4)c4ccc(O)c(c4)-c4c(O)cc(O)cc4C(C(=O)O)NC3=O)OC(CO)C(O)C2O)OC(C)C1O)OCc1ccc(Cl)cc1 (stereo partly shown) [Compound V52] | 2 (≈ 1.2 µM) | < 0.125 | 20 (≈ 12000 µM) | – | – | – | –
9 | CCCCCCOC(CNC1(C)CC(OC2C(Oc3c4cc5cc3Oc3ccc(cc3Cl)[C@@H](O)[C@@H]3NC(=O)C(NC(=O)[C@@H]5NC(=O)[C@H](CC(N)=O)NC(=O)C(NC(=O)[C@@H](CC(C)C)NC)[C@H](O)c5ccc(c(Cl)c5)O4)c4ccc(O)c(c4)-c4c(O)cc(O)cc4[C@H](C(=O)O)NC3=O)OC(CO)C(O)C2O)OC(C)C1O)C(=O)O (stereo partly shown) [Compound V32] | 8 (≈ 4.93 µM) | 2 (≈ 1.23 µM) | 50 to 60 (≈ 30800 to 37000 µM) | – | – | – | –
10 | CC(C)C[C@@H](N)C(=O)N[C@@H]1C(=O)NC(CC(N)=O)C(=O)NC2C(=O)NC3C(=O)N[C@H](C(=O)NC(C(=O)O)c4cc(O)cc(O)c4-c4cc3ccc4O)[C@H](O)c3ccc(c(Cl)c3)Oc3cc2cc(c3OC2OC(CO)C(O)C(O)C2OC2CC(C)(NCC(OCc3ccccc3)C(=O)O)C(O)C(C)O2)Oc2ccc(cc2Cl)C1O (stereo partly shown) [Compound V51] | 32 (≈ 19.8 µM) | 8 (≈ 4.96 µM) | 20 (≈ 12400 µM) | – | – | – | –
11 | CCCOC(CNC1(C)CC(OC2C(Oc3c4cc5cc3Oc3ccc(cc3Cl)[C@@H](O)[C@@H]3NC(=O)C(NC(=O)C5NC(=O)C(CC(N)=O)NC(=O)[C@@H](NC(=O)[C@H](N)CC(C)C)C(O)c5ccc(c(Cl)c5)O4)c4ccc(O)c(c4)-c4c(O)cc(O)cc4C(C(=O)O)NC3=O)OC(CO)C(O)C2O)OC(C)C1O)C(=O)O (stereo partly shown) [Compound V57] | 16 (≈ 10.2 µM) | 4 (≈ 2.56 µM) | > 60 | – | – | – | –
12 | CC(C)C[C@@H](N)C(=O)N[C@@H]1C(=O)NC(CC(N)=O)C(=O)NC2C(=O)NC3C(=O)N[C@H](C(=O)NC(C(=O)O)c4cc(O)cc(O)c4-c4cc3ccc4O)[C@H](OC3CC(C)(N)C(O)C(C)O3)c3ccc(c(Cl)c3)Oc3cc2cc(c3OC2OC(CO)C(O)C(O)C2OC2CC(C)(NCC(OCc3ccc(-c4ccc(Cl)cc4)cc3)C(=O)O)C(O)C(C)O2)Oc2ccc(cc2Cl)C1O (stereo partly shown) [Compound V66] | 2 (≈ 1.07 µM) | < 0.125 | 5 to 20 (≈ 2680 to 10700 µM) | – | – | – | –
13 | CCCCCCOC(CNC1(C)CC(OC2C(Oc3c4cc5cc3Oc3ccc(cc3Cl)[C@@H](O)[C@@H]3NC(=O)C(NC(=O)C5NC(=O)C(CC(N)=O)NC(=O)[C@@H](NC(=O)[C@@H](CC(C)C)NC)C(O)c5ccc(c(Cl)c5)O4)c4ccc(O)c(c4)-c4c(O)cc(O)cc4C(C(=O)O)NC3=O)OC(CO)C(O)C2O)OC(C)C1O)C(=O)OC (stereo partly shown) [Compound V31] | 8 (≈ 4.89 µM) | 2 (≈ 1.22 µM) | < 1 | – | – | – | –
14 | CCCCCCCCCCOC(CNC1(C)CC(OC2C(Oc3c4cc5cc3Oc3ccc(cc3Cl)[C@@H](OC3CC(C)(N)C(O)C(C)O3)[C@@H]3NC(=O)C(NC(=O)C5NC(=O)C(CC(N)=O)NC(=O)[C@@H](NC(=O)[C@@H](CC(C)C)NC)C(O)c5ccc(c(Cl)c5)O4)c4ccc(O)c(c4)-c4c(O)cc(O)cc4C(C(=O)O)NC3=O)OC(CO)C(O)C2O)OC(C)C1O)C(=O)O (stereo partly shown) [Compound V69] | 8 (≈ 4.39 µM) | 2 (≈ 1.1 µM) | 5 to 10 (≈ 2750 to 5490 µM) | – | – | – | –
15 | CN[C@H](CC(C)C)C(=O)N[C@H]1C(=O)N[C@@H](CC(N)=O)C(=O)N[C@H]2C(=O)N[C@H]3C(=O)N[C@H](C(=O)N[C@H](C(=O)O)c4cc(O)cc(O)c4-c4cc3ccc4O)[C@H](O)c3ccc(c(Cl)c3)Oc3cc2cc(c3O[C@@H]2O[C@H](CO)[C@@H](O)[C@H](O)[C@H]2O[C@H]2C[C@](C)(N)[C@H](O)[C@H](C)O2)Oc2ccc(cc2Cl)[C@H]1O [Vancomycin] | – | – | – | 8 (≈ 5.52 µM) | 2 (≈ 1.38 µM) | ≥ 100 | –
16 | Oritavancin | – | – | – | – | – | – | <0.1
17 | CCOC(CNC1(C)CC(OC2C(Oc3c4cc5cc3Oc3ccc(cc3Cl)[C@@H](O)[C@@H]3NC(=O)C(NC(=O)C5NC(=O)C(CC(N)=O)NC(=O)[C@@H](NC(=O)[C@@H](CC(C)C)NC)C(O)c5ccc(c(Cl)c5)O4)c4ccc(O)c(c4)-c4c(O)cc(O)cc4C(C(=O)O)NC3=O)OC(CO)C(O)C2O)OC(C)C1O)C(=O)OC (stereo partly shown) [Compound V33] | 64 (≈ 40.5 µM) | 16 (≈ 10.1 µM) | 5 (≈ 3170 µM) | – | – | – | –
